Laboratory results from US20060166989A1, “2-naphthamide derivatives” (Bayer Healthcare AG, priority 2002, published 2006).

Experiments:
[1] = target: T1, IP receptor (Homo sapiens, UniProt P43119); experiment: Iloprost-induced cAMP production assay in HEL cells (Assay 2); assay type: cell-based; conditions: read-out: Activity grade assay 2
T1 construct: HEL cells were collected with centrifugation and washed with cAMP assay buffer; host or cells: HEL 92.1.7 human erythroleukemia cells
Protocol: [Iloprost-Induced cAMP Production Assay in HEL Cells] (Assay 2)
HEL cells were collected with centrifugation and washed with cAMP assay buffer (CAB: Hank's balanced salt solution, 17 mM Hepes, 0.1% bovine serum albumin, 1 mM IBMX, 0.4% DMSO, and 1 mM L-ascorbic acid sodium salt (pH 7.4)). Cells were suspended at the density of 2.5×10^5 cells/ml in CAB, and twenty thousand cells in 80 μl aliquot of cell suspension were put in a well of 96 well plate (Falcon). Then, 10 μl of compound solution diluted with 1% DMSO in CAB or buffer alone was added. The plate was incubated at 37° C. for 30 min. Then, another 10 μl containing 100 nM iloprost in CAB or buffer alone was added and further incubated at 37° C. for 30 min. cAMP content in the well was measured by a cAMP ELISA kit (Applied Biosystems, USA).
Results of Iloprost-induced cAMP production assay (Assay2) are shown in Examples and tables of the Examples below. For practical reasons, the compounds are grouped in three classes of activity as follows: A(=or<)0.1μM<B(=or<)1μM<C

T1 sequence (P43119 whole entry): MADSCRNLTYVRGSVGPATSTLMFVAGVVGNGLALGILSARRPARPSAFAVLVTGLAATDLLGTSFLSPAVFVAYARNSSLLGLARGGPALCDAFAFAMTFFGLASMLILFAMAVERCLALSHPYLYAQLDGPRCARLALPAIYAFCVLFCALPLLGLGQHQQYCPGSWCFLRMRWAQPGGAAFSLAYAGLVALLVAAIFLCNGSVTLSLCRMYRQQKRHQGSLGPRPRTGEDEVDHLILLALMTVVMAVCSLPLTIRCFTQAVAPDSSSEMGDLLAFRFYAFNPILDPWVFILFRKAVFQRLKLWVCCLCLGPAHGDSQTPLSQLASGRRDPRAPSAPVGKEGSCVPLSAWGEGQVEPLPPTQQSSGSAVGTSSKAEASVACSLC

| melting point | IC50 [1] | Compound |
| --- | --- | --- |
| 238 to 240 °C | > 1000 nM | Nc1ccc(CC(NC(=O)c2ccc3cc(OCc4ccccc4)ccc3c2)C(=O)O)cc1 (stereo not drawn) [Example 1-66] |
| 140 °C | < 100 nM | COc1cc(COc2ccc3cc(C(=O)NC(Cc4ccccc4)C(=O)O)ccc3c2)cc(OC)c1 (stereo not drawn) [Example 1-35] |
| 179 °C | 100 to 1000 nM | O=C(NC(Cc1ccccc1)C(=O)O)c1ccc2cc(OCc3cccc(OCC4CC4)c3)ccc2c1 (stereo not drawn) [Example 1-89] |
| 140 °C | 100 to 1000 nM | CC(C)COc1cccc(COc2ccc3cc(C(=O)NC(Cc4ccccc4)C(=O)O)ccc3c2)c1 (stereo not drawn) [Example 1-93] |
| 220 to 221 °C | < 100 nM | O=C(NC(Cc1ccccc1)C(=O)O)c1ccc2cc(OCc3ccncc3)ccc2c1 (stereo not drawn) [Example 1-12] |
| 197 °C | < 100 nM | O=C(NC(Cc1ccccc1)C(=O)O)c1ccc2cc(OCc3ccc(F)cc3)ccc2c1 (stereo not drawn) [Example 1-5] |
| 214 °C | < 100 nM | O=C(NC(Cc1cccc(O)c1)C(=O)O)c1ccc2cc(OCc3ccccc3)ccc2c1 (stereo not drawn) [Example 1-47] |
| 193 to 194 °C | < 100 nM | O=C(NC(Cc1ccccc1)C(=O)O)c1ccc2cc(OCc3cccc([N+](=O)[O-])c3)ccc2c1 (stereo not drawn) [Example 1-61] |

Continued, compound first:

| Compound | melting point | IC50 [1] |
| --- | --- | --- |
| O=C(NC(Cc1ccccc1)C(=O)O)c1ccc2cc(OCCN3CCCC3)ccc2c1 (stereo not drawn) [Example 1-81] | 234 °C | > 1000 nM |
| O=C(NC(Cc1cccc2ccccc12)C(=O)O)c1ccc2cc(OCc3ccccc3)ccc2c1 (stereo not drawn) [Example 1-48] | 218 °C | < 100 nM |
| O=C(NC(Cc1ccccc1)C(=O)O)c1ccc2cc(OCC3CCCCC3)ccc2c1 (stereo not drawn) [Example 1-74] | 220 °C | 100 to 1000 nM |
| O=C(NC(Cc1ccccc1)C(=O)O)c1ccc2cc(OCc3cccc(Cl)c3Cl)ccc2c1 (stereo not drawn) [Example 1-33] | 211 °C | < 100 nM |
| Cc1cc(C)cc(COc2ccc3cc(C(=O)NC(Cc4ccccc4)C(=O)O)ccc3c2)c1 (stereo not drawn) [Example 1-57] | 167 to 168 °C | 100 to 1000 nM |
| O=C(NC(Cc1c[nH]c2ncccc12)C(=O)O)c1ccc2cc(OCc3ccccc3)ccc2c1 (stereo not drawn) [Example 1-80] | 275 to 277 °C (dec.) | < 100 nM |
| O=C(NC(Cc1ccccc1)C(=O)O)c1ccc2cc(OCCOc3ccccc3)ccc2c1 (stereo not drawn) [Example 1-4] | 225 to 227 °C | 100 to 1000 nM |
| O=C(NC(Cc1ccccc1)C(=O)O)c1ccc2cc(OCc3c(Cl)cccc3Cl)ccc2c1 (stereo not drawn) [Example 1-41] | 245 °C | 100 to 1000 nM |
| O=C(NC(Cc1ccccc1)C(=O)O)c1ccc2cc(OCCCc3ccccc3)ccc2c1 (stereo not drawn) [Example 1-64] | 182 °C | 100 to 1000 nM |
| O=C(N[C@@H](Cc1ccccc1)C(=O)O)c1ccc2cc(NCc3ccccc3)ccc2c1 [Example 4-1, N-[6-(benzylamino)-2-naphthoyl]phenylalanine] | 172 °C | 100 to 1000 nM |
| Cc1ccc(C)c(COc2ccc3cc(C(=O)NC(Cc4ccccc4)C(=O)O)ccc3c2)c1 (stereo not drawn) [Example 1-40] | 210 °C | 100 to 1000 nM |
| O=C(NC(Cc1ccccc1)C(=O)O)c1ccc2cc(OCCN3CCCCC3)ccc2c1 (stereo not drawn) [Example 1-82] | 215 °C | > 1000 nM |
| O=C(NC(CCc1ccccc1)C(=O)O)c1ccc2cc(OCc3ccccc3)ccc2c1 (stereo not drawn) [Example 1-72] | 223 to 225 °C | > 1000 nM |
| O=C(NC(Cc1ccccc1)C(=O)O)c1ccc2cc(OCc3ccccc3OC(F)(F)F)ccc2c1 (stereo not drawn) [Example 1-37] | 158 °C | > 1000 nM |
| Cc1nc(COc2ccc3cc(C(=O)NC(Cc4ccccc4)C(=O)O)ccc3c2)cs1 (stereo not drawn) [Example 1-62] | 208 °C | 100 to 1000 nM |
| O=C(NC(Cc1ccccc1)C(=O)O)c1ccc2cc(OCCc3ccccc3)ccc2c1 (stereo not drawn) [Example 1-19] | 144 °C | < 100 nM |
